Tests used:
Assay type in all cases: in vivo
Leptosphaeria nodorum = assay: Wheat Glume Blotch fungicidal activity (LEPTNO); conditions: 100 ppm, 1 Day Protectant
Description: Technical grades of materials were dissolved in acetone, which were then mixed with nine volumes of water containing 110 ppm Triton X-100. The fungicide solutions were applied onto wheat seedlings using an automated booth sprayer to run-off. All sprayed plants were allowed to air dry prior to further handling. All fungicides were evaluated using the aforementioned method for their activity vs. all target diseases. Wheat leaf blotch and brown rust activity were also evaluated using track spray applications, in which case the fungicides were formulated as EC formulations, containing 0.1% Trycol 5941 in the spray solutions. Wheat plants (variety Yuma) were grown from seed in a greenhouse in 50% mineral soil/50% soil-less Metro mix until the first leaf was fully emerged, with 7-10 seedlings per pot. These plants were inoculated with an aqueous spore suspension of Septoria tritici either prior to or after fungicide treatments. After inoculation the plants were kept in 100% relative humidity (one day in a dark dew chamber followed by two to three days in a lighted dew chamber at 20° C.) to permit spores to germinate and infect the leaf. The plants were then transferred to a greenhouse set at 20° C. for disease to develop. When disease symptoms were fully expressed on the 1st leaves of untreated plants, infection levels were assessed on a scale of 0 to 100 percent disease severity. Percent disease control was calculated using the ratio of disease severity on treated plants relative to untreated plants. Evaluation of Fungicidal Activity: Wheat Glume Blotch (Leptosphaeria nodorum; Bayer code […]) Wheat plants (variety Yuma) were grown from seed in a greenhouse in 50% mineral soil/50% soil-less Metro mix until the first leaf was fully emerged, with 7-10 seedlings per pot. These plants were inoculated with an aqueous spore suspension of Leptosphaeria nodorum 24 hr after fungicide treatments. After inoculation the plants were kept in 100% relative humidity (one day in a dark dew chamber followed by two days in a lighted dew chamber at 20° C.) to permit spores to germinate and infect the leaf. The plants were then transferred to a greenhouse set at 20° C. for disease to develop. Fungicide formulation, application and disease assessment followed the procedures as described in the Example A.

Venturia inaequalis = assay: Apple Scab fungicidal activity (VENTIN); conditions: 100 ppm, 1 Day Protectant
Description: Technical grades of materials were dissolved in acetone, which were then mixed with nine volumes of water containing 110 ppm Triton X-100. The fungicide solutions were applied onto wheat seedlings using an automated booth sprayer to run-off. All sprayed plants were allowed to air dry prior to further handling. All fungicides were evaluated using the aforementioned method for their activity vs. all target diseases. Wheat leaf blotch and brown rust activity were also evaluated using track spray applications, in which case the fungicides were formulated as EC formulations, containing 0.1% Trycol 5941 in the spray solutions. Wheat plants (variety Yuma) were grown from seed in a greenhouse in 50% mineral soil/50% soil-less Metro mix until the first leaf was fully emerged, with 7-10 seedlings per pot. These plants were inoculated with an aqueous spore suspension of Septoria tritici either prior to or after fungicide treatments. After inoculation the plants were kept in 100% relative humidity (one day in a dark dew chamber followed by two to three days in a lighted dew chamber at 20° C.) to permit spores to germinate and infect the leaf. The plants were then transferred to a greenhouse set at 20° C. for disease to develop. When disease symptoms were fully expressed on the 1st leaves of untreated plants, infection levels were assessed on a scale of 0 to 100 percent disease severity. Percent disease control was calculated using the ratio of disease severity on treated plants relative to untreated plants. Evaluation of Fungicidal Activity: Apple Scab (Venturia inaequalis; Bayer code […]) Apple seedlings (variety McIntosh) were grown in soil-less Metro mix, with one plant per pot. Seedlings with two expanding young leaves at the top (older leaves at bottom of the plants were trimmed) were used in the test. Plants were inoculated with a spore suspension of Venturia inaequalis 24 hr after fungicide treatment and kept in a 22° C. dew chamber with 100% RH for 48 hr, and then moved to a greenhouse set at 20° C. for disease to develop. Fungicide formulation, application and disease assessment on the sprayed leaves followed the procedures as described in the Example A.

Uncinula necator = assay: Grape Powdery Mildew fungicidal activity (UNCINE); conditions: Erysiphe necator, 24 h, 1 Day Protectant, read-out: Disease Control UNCINE 1DP
Description: Technical grades of materials were dissolved in acetone, which were then mixed with nine volumes of water containing 110 ppm Triton X-100. The fungicide solutions were applied onto wheat seedlings using an automated booth sprayer to run-off. All sprayed plants were allowed to air dry prior to further handling. All fungicides were evaluated using the aforementioned method for their activity vs. all target diseases. Wheat leaf blotch and brown rust activity were also evaluated using track spray applications, in which case the fungicides were formulated as EC formulations, containing 0.1% Trycol 5941 in the spray solutions. Wheat plants (variety Yuma) were grown from seed in a greenhouse in 50% mineral soil/50% soil-less Metro mix until the first leaf was fully emerged, with 7-10 seedlings per pot. These plants were inoculated with an aqueous spore suspension of Septoria tritici either prior to or after fungicide treatments. After inoculation the plants were kept in 100% relative humidity (one day in a dark dew chamber followed by two to three days in a lighted dew chamber at 20° C.) to permit spores to germinate and infect the leaf. The plants were then transferred to a greenhouse set at 20° C. for disease to develop. When disease symptoms were fully expressed on the 1st leaves of untreated plants, infection levels were assessed on a scale of 0 to 100 percent disease severity. Percent disease control was calculated using the ratio of disease severity on treated plants relative to untreated plants. Evaluation of Fungicidal Activity: Grape Powdery Mildew (Uncinula necator; Bayer code […]) Grape seedlings (variety Carignane) were grown in soil-less Metro mix, with one plant per pot, and used in the test when approximately one month old. Plants were inoculated 24 hr after fungicide treatment by shaking spores from infected leaves over test plants. Plants were maintained in a greenhouse set at 20° C. until disease was fully developed. Fungicide formulation, application and disease assessment on the sprayed leaves followed the procedures as described in the Example A.

## COc1ccnc(C(=O)N[C@H]2COC[C@H](Cc3cccc4ccccc34)[C@@H](OC(=O)C(C)C)[C@H](C)OC2=O)c1OCOC(C)=O [Compound F83, (3S,6S,7R,8S)-3-(3-(acetoxymethoxy)-4-methoxypicolin-amido)-6-methyl-8-(naphthalen-1-ylmethyl)-4-oxo-1,5-dioxonan-7-yl isobutyrate]
Leptosphaeria nodorum
  Disease Control LEPTNO 1DP: A (80-100)
Venturia inaequalis
  Disease Control VENTIN 1DP: A (80-100)
Uncinula necator
  pest or weed control at 100 ppm: 0 to 80%

## COc1ccnc(C(=O)N[C@H]2COC[C@H](CC3CCCC3)[C@@H](OC(=O)C(C)C)[C@H](C)OC2=O)c1OCOC(C)=O [Compound F114]
Venturia inaequalis
  Disease Control VENTIN 1DP: A (80-100)
Uncinula necator
  pest or weed control at 100 ppm: 80 to 100%

## COc1ccnc(C(=O)N[C@H]2COC[C@H](Cc3ccc(C)cc3)[C@@H](OCC(C)C)[C@H](C)OC2=O)c1OCOC(C)=O [Compound F117]
Leptosphaeria nodorum
  Disease Control LEPTNO 1DP: A (80-100)
Venturia inaequalis
  Disease Control VENTIN 1DP: A (80-100)
Uncinula necator
  pest or weed control at 100 ppm: 80 to 100%

## COc1ccnc(C(=O)N[C@H]2COC[C@H](Cc3ccc(F)cc3)[C@@H](OCC(C)C)[C@H](C)OC2=O)c1OC(C)=O [Compound F60]
Uncinula necator
  pest or weed control at 100 ppm: 80 to 100%

## CCCCCO[C@@H]1[C@@H](Cc2ccc(Cl)cc2Cl)COC[C@H](NC(=O)c2nccc(OC)c2OCOC(=O)COCC)C(=O)O[C@H]1C [Compound F122]
Leptosphaeria nodorum
  Disease Control LEPTNO 1DP: A (80-100)
Venturia inaequalis
  Disease Control VENTIN 1DP: A (80-100)
Uncinula necator
  pest or weed control at 100 ppm: 80 to 100%

## COc1ccnc(C(=O)N[C@H]2COC[C@H](CCC(C)C)[C@@H](OC(=O)C3CC3)[C@H](C)OC2=O)c1OCOC(C)=O [Compound F108]
Uncinula necator
  pest or weed control at 100 ppm: 80 to 100%

## COc1ccnc(C(=O)N[C@H]2COC[C@H](Cc3ccc(C)cc3)[C@@H](OCC(C)C)[C@H](C)OC2=O)c1OC(C)=O [Compound F80]
Leptosphaeria nodorum
  Disease Control LEPTNO 1DP: A (80-100)
Venturia inaequalis
  Disease Control VENTIN 1DP: B (More than 0-Less than 80)
Uncinula necator
  pest or weed control at 100 ppm: 0 to 80%

## CCCCCO[C@@H]1[C@@H](Cc2ccc(Cl)cc2Cl)COC[C@H](NC(=O)c2nccc(OC)c2OC(=O)CCOC)C(=O)O[C@H]1C [Compound F123]
Leptosphaeria nodorum
  Disease Control LEPTNO 1DP: A (80-100)
Venturia inaequalis
  Disease Control VENTIN 1DP: B (More than 0-Less than 80)
Uncinula necator
  pest or weed control at 100 ppm: 80 to 100%

## COc1ccnc(C(=O)N[C@H]2COC[C@H](CCC(C)C)[C@@H](OCCCC(F)(F)F)[C@H](C)OC2=O)c1OCOC(C)=O [Compound F107]
Uncinula necator
  pest or weed control at 100 ppm: 0 to 80%

## COc1ccnc(C(=O)N[C@H]2COC[C@H](Cc3ccc(F)cc3)[C@@H](OCC(C)C)[C@H](C)OC2=O)c1OCOC(C)=O [Compound F96]
Leptosphaeria nodorum
  Disease Control LEPTNO 1DP: A (80-100)
Uncinula necator
  pest or weed control at 100 ppm: 80 to 100%

From patent publication US9179674B2, “Macrocyclic picolinamide compounds with fungicidal activity” (DOW AGROSCIENCES LLC, priority 2013, dated 2015)
